US6863897B2, “Stabilization of resorcinol derivatives in cosmetic compositions” (Unilever Home & Personal Care USA, division of Conopco, Inc., priority 2002, dated 2005)

Assay: Storage color stability of resorcinol formulations with and without micronized TiO2 (chromameter CIE L*)
Type: physicochemical
Design: key: difference in CIE L* (lightness) values, with TiO2 minus without
Conditions: 45° C. oven, glass amber jars, 0.2% micronized TiO2 (MT-100Z), resorcinol content 2.17 milli-M
Experimental: In this experiment, the storage stability in terms of color change of resorcinol derivatives time was measured with and without the presence of metal oxides.
The color stabilization of formulations of containing 4-substituted resorcinol derivatives by TiO2 was assessed by measuring the chromameter L* value (Luminance, or lightness) of the different formulations over time. A decrease in L* over time represents a darkening of the formulations as color develops from the white starting formulation due to decomposition of the resorcinol derivative. In Table 5 below, the ΔL value between formulations with and without TiO2 indicates the magnitude of color difference between the comparative samples. […] Thus, one can see that TiO2 has a large color-stabilizing effect, particularly on the formulations containing 4-substituted resorcinols.
The cosmetic compositions of Examples 5 to 8 in the Table above were stored and tested for stability in terms of discoloration. The resorcinol and 4-substituted resorcinol derivatives in these examples had equal molar content, i.e., 2.17 milli-M. A comparative composition, example 8, was made by eliminating resorcinol or its derivatives from the compositions of examples 5 to 8. The product formulations were stored for 56 days in glass amber jars of 120 ml volume in an oven at 45° C.
Procedure for Measuring CIE L*a*b* Color of Cosmetic Formulations
A film is created by applying a composition evenly to an UV-Transparent quartz plate (4″×4⅛″×⅛″) with a spatula. An 8-path wet film applicator from Paul Gardner Company, Inc. with a 3″ path width is used. The applicator is manually drawn across the plate for a […] thickness.
The plate is flipped over with the thin film facing the bench top and suspended 1½″ above a black benchtop (L*a*b* reading of the benchtop is L*=27.5, a*=0.5, b*=−0.6). Then a hand held Minolta CR10 chromameter is calibrated on a white Calibration Color tile (L 98.2, a 0.2, b 1.2). The chromameter is then placed on the top of the plate and three readings of the Commission Internationale de l'Eclairage (CIE) L*a*b* color system are taken. • L*=Black to white (luminance) from 0 to 100 [L*=0 represents Black] • a*=green to red from −60 to +60 • b*=blue to yellow from −60 to +60
The formulation thin film L* values were used in the present analysis. For each data collection the average value for the three readings was used at 0, 14, 28, and 56 days.

Row | SMILES | Base-adjusted ΔL with TiO2 - ΔL without TiO2 for the resorcinol formulations (storage time 0 day) | Base-adjusted ΔL with TiO2 - ΔL without TiO2 for the resorcinol formulations (storage time 14 days) | Base-adjusted ΔL with TiO2 - ΔL without TiO2 for the resorcinol formulations (storage time 28 days) | Base-adjusted ΔL with TiO2 - ΔL without TiO2 for the resorcinol formulations (storage time 56 days)
1 | CCc1ccc(O)cc1O [4-Ethyl resorcinol, 4-ethyl resorcinol] | 0 | 12.0 | 4.6 | 7.6
2 | CCCCCCc1ccc(O)cc1O [4-Hexyl resorcinol, 4-hexyl resorcinol] | 0 | 7.7 | 0.1 | 3.7
3 | Oc1cccc(O)c1 [Resorcinol] | 0 | 0.9 | −2 | 1.1
